These results are taken from paper PMC10447463, “Data-mining unveils structure–property–activity correlation of viral infectivity enhancing self-assembling peptides” (Nature Communications, 2023).

Several values for one entry are separate records, joined by “and”; a condition that tells them apart may be missing. Equal entries are not always repeated. Where two headings read alike, the source gives them in different places.

Series [1] is classed as physicochemical. Also noted: key to Fibril / Fibril Formation / TEM 2cat / Fibril: 1 = fibrils present; 0 non-fibrillar structures.
The nature of series [2]: Zeta-potential measurement. It is filed as physicochemical. Particulars: for Zeta-pot. / mV: zeta potential of peptide, Fig S15 source data. The method, boiled down: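 Peptides from a 10 mg/mL DMSO stock were brought to 1 mg/mL in PBS (pH 7.4) and aged 1 d at RT. Just before reading, they were diluted into 1 mM aqueous KCl, and zeta potential was calculated from electrophoretic mobility with the Smoluchowski formula.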

Series [3] has as its system HIV-1 infection of TZM-bl cells. The series is described as follows: HIV-1 infectivity enhancement assay, β-galactosidase luminescence. Format: cell-based. Particulars: for Log10 Infection Rel EF-C: HIV-1 infection of TZM-bl cells; for infectivity: infectivity class (low / medium / high) of each library peptide, main list in c1-c6, same classes repeated in sub-lists of sequences containing the hydrophobicity/charge patterns P+,H0,P+,H0,P0,H0,P0, P+,H0,P0,H0,P0,H0,P0, P+,H0,P0,H0; for Log10 Inf. rel. to EF-C: log10 of HIV-1 infection of TZM-bl cells relative to EF-C, Fig S15 source data.

Series [4] can be described thus: β-sheet content by ATR-FT-IR. It is filed as physicochemical. An outline of the steps: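 In the conversion assay, unconverted peptide passing a 3 kDa membrane at 4 °C was labelled with fluorescamine alongside unfiltered PNF, both in DMSO, and read at 365/470 nm after 20 min at room temperature. β-sheet content relied on ATR FT-IR of lyophilized fibril powder.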
Setting [5] is: category derived from the zeta potential.
The mark [6] stands for this setting: Feb2021, Log10 of infectivity relative to EF-C.
Where [7] appears, read: Feb2021, figures match the 1.3 µM column.
Setting [8] is: Feb2021, infectivity enhancement relative to EF-C.
[9] abbreviates: Feb2021, infectivity relative to virus only.
Where [10] appears, read: Feb2021, n-fold infectivity relative to EF-C.
Where [11] appears, read: Feb2021, 1.3 µM value relative to virus only (0 µM).
Setting [12] is: Feb2021, unrounded values of the 1.3 µM column.
Where [13] appears, read: Feb2021, n-fold enhancement relative to EF-C.
Where [14] appears, read: Feb2021 run, infectivity n-fold relative to virus alone.
Setting [15] is: Feb2021 run, log10 of infectivity relative to EF-C.
[16] abbreviates: Feb2021 run, n-fold infectivity relative to EF-C.

As to KLKQLL, the “TEM 2cat” value is reported as 0 in series [1] (Fig S10 panel D) and 0 in series [1] (FigS12 panel A, fibril category by TEM). The Fibril in series [1] (FigS12 panel B, TEM) was found to be 0; in series [1] (TEM, 1 = fibrils present, 0 = non-fibrillar) it was 0; in series [1] (TEM, 1 = fibrils present, 0 = non-fibrillar structures), 0. For the same substance, the “Fibril / Fibril Formation” value in series [1] (TEM, 1 mg/mL, uranyl acetate stain, qualitative) is reported as 0. Besides, in series [2] (zeta potential of peptide assemblies), the Zeta-Pot. is listed as -8.46. Also, the “Zeta-Potential / mV” value is -5.682 mV in series [2] (zeta-potential of peptide, source data of Figure 2C) and -8.46 mV in series [2] (zeta-potential of the peptide assemblies, mean, Figure 3A source data). For the same substance, the Rel-EFC in series [3] (1.3 µM peptide, infection relative to EF-C (QCKIKQIINMWQ = 1)) is given as 0,01. Also, the “Log10 Infection Rel EFC” value in series [3] (1.3 µM peptide, log10 of infection relative to EF-C) is recorded as -2,13. For the same substance, the “Log Infectivity” value in series [3] (Fig. S7 panel A (plotted against β-sheet content), Log10 infection relative to EF-C, TZM-bl cells, asymmetric std dev errors) is reported as -2.131. Besides, the “Log10 Infection Rel EF-C” value in series [3] (Log10 of infection rate relative to EF-C, Figure 3A source data) is given as -2.13; in series [3] (infection rate relative to EF-C, log10, data of Figure 2D), -2.131; in series [3] (infection rate relative to EF-C, log10, source data of Figure 2C) it was -2.131. In series [4] (Fig. S7 panel A, β-sheet content by ATR-FT-IR), the “b -sheet / %” value is 31.78%.
Consider KLKQLL [KM27 / psis14], for which, in series [1], the “TEM: 1= fibrils, 0= aggregates (micelle), 0.5 = aggregates and fibrils, -1 = nothing obersved, STD prep” value (shortened to “TEM: 1= fibrils, 0= aggregates (micelle)”) came out at 0.5. Also, the “Zeta Pot. / mV” value is given as -8.46 mV in series [2] and -8.46 mV in series [2] (mean, Std Zeta in next column). Besides, the “Zeta category ( +1 = if > 4 mV;-1 = if < -4 mV; 0 = -4mV to 4 mV)” value (“Zeta category” below) in series [2] and in series [2] (setting [5]) was -1 (-1 = if < -4 mV) throughout. Further, the “Zeta-pot. / mV” value in series [2] was -8.46 mV. For the same substance, the “Log10 of Rel to EFC (Feb2021)” value in series [3] (setting [6]) was -2.131. The “Absolute Infectivity / RLU /s (Feb2021)” value in series [3] (setting [7]) is recorded as 196.7 RLU /s. Further, the “Rel-to EFC (Feb-2021)” value in series [3] (setting [8]) and in series [3] (setting [10]) was 0.00739 each time. For the same substance, in series [3] (setting [9]), the “n-fold to virus (Feb2021)” value turned out to be 0.3105. The infectivity result in series [3] is recorded as “low”. The “Log10 Inf. rel. to EF-C” value in series [3] (asymmetric std dev errors) is listed as -2.131. The “FTIR ß-sheet content/ %” value in series [4] (ATR-FT-IR) stood at 0%.
As for MKFKFQF [DF5 / CK16], the “TEM: 1= fibrils, 0= aggregates (micelle)” value in series [1] is 1. In series [2], the “Zeta category” value was 0 (0 = -4mV to 4 mV) and the “Zeta-pot. / mV” value was -3.133 mV. Besides, the “Zeta Pot. / mV” value in series [2] (mean, Std Zeta in next column) is -3.133 mV. For the same substance, the “n-fold to virus (Feb2021)” value in series [3] (setting [11]) was determined as 2.675. In series [3] (Feb2021, log10 of infectivity relative to EF-C), the “Log10 of Rel to EFC (Feb2021)” value was -1.196. For the same substance, in series [3] (setting [10]), the “Rel-to EFC (Feb-2021)” value is listed as 0.06366. The “Absolute Infectivity / RLU /s (Feb2021)” value in series [3] (setting [12]) came to 1427 RLU /s. For the same substance, the infectivity entry in series [3] is given as “low”. Further, the “Log10 Inf. rel. to EF-C” value in series [3] (asymmetric std dev errors) is -1.196. The “FTIR ß-sheet content/ %” value in series [4] (ATR-FT-IR) amounted to 21.97%.
For the substance QCKFKFQFNMWQ [CK7], in series [1], the “TEM: 1= fibrils, 0= aggregates (micelle)” value amounted to 1. In addition, the “Zeta category” value in series [2] and in series [2] (category from zeta potential) was 1 (+1 = if > 4 mV) throughout. Further, the “Zeta Pot. / mV” value in series [2] (mean, Std Zeta in next column) was 21.07 mV; in series [2] (mean, Std in separate column), 21.07 mV. Moreover, in series [2], the “Zeta-pot. / mV” value was 21.07 mV. The “n-fold to virus (Feb2021)” value in series [3] (setting [11]) and in series [3] (setting [14]) was 25.99 throughout. Moreover, the “Log10 of Rel to EFC (Feb2021)” value in series [3] (setting [6]) and in series [3] (setting [15]) was -0.2086 throughout. Also, the “Rel-to EFC (Feb-2021)” value in series [3] (setting [13]), in series [3] (setting [10]) and in series [3] (setting [16]) was 0.6186 each time. In addition, the “Absolute Infectivity / RLU /s (Feb2021)” value in series [3] (setting [12]) is reported as 19753.33333 RLU /s. Also, the infectivity entry in series [3] was “medium”. Also, the “Log10 Inf. rel. to EF-C” value in series [3] (asymmetric std dev errors) is -0.2086. The “FTIR ß-sheet content/ %” value in series [4] is 47.05%; in series [4] (ATR-FT-IR) it was 47% and 47.05%.
With QCKFKQFF [CK12], in series [1], the “TEM: 1= fibrils, 0= aggregates (micelle)” value is 1. Also, the “Zeta Pot. / mV” value worked out at 4.94 mV in series [2]; 4.94 mV in series [2] (mean, Std Zeta in next column); 4.94 mV in series [2] (mean, Std in separate column). For the same substance, the “Zeta category” value in series [2] and in series [2] (setting [5]) was 1 (+1 = if > 4 mV) throughout. For the same substance, the “Zeta-pot. / mV” value in series [2] worked out at 4.94 mV. Further, the “Log10 of Rel to EFC (Feb2021)” value in series [3] (setting [6]) and in series [3] (setting [15]) was -1.907 throughout. The “Absolute Infectivity / RLU /s (Feb2021)” value in series [3] (setting [7]) is recorded as 170 RLU /s. Further, the “Rel-to EFC (Feb-2021)” value in series [3] (setting [8]), in series [3] (setting [10]) and in series [3] (setting [16]) was 0.01239 each time. Moreover, the “n-fold to virus (Feb2021)” value in series [3] (setting [9]) and in series [3] (setting [14]) was 0.5204 each time. The infectivity result in series [3] is recorded as “low”. In addition, in series [3] (asymmetric std dev errors), the “Log10 Inf. rel. to EF-C” value is listed as -1.907. Also, the “FTIR ß-sheet content/ %” value in series [4] (ATR-FT-IR) amounted to 0%.
QCKFKQFFNM [CK11]: in series [1], the “TEM: 1= fibrils, 0= aggregates (micelle)” value is on record as 0.5. The “Zeta Pot. / mV” value in series [2] is 13.67 mV; in series [2] (mean, Std Zeta in next column) it was 13.67 mV; in series [2] (mean, Std in separate column), 13.67 mV. Moreover, the “Zeta category” value in series [2] and in series [2] (setting [5]) was 1 (+1 = if > 4 mV) in each case. In addition, the “Zeta-pot. / mV” value in series [2] was found to be 13.67 mV. The “Log10 of Rel to EFC (Feb2021)” value in series [3] (setting [6]) and in series [3] (setting [15]) was -0.3706 in each case. For the same substance, the “Absolute Infectivity / RLU /s (Feb2021)” value in series [3] (setting [7]) is 5847 RLU /s. The “Rel-to EFC (Feb-2021)” value in series [3] (setting [8]), in series [3] (setting [10]) and in series [3] (setting [16]) was 0.426 in each case. The “n-fold to virus (Feb2021)” value in series [3] (setting [9]) and in series [3] (setting [14]) was 17.9 throughout. For the same substance, the infectivity entry in series [3] is “medium”. Besides, the “Log10 Inf. rel. to EF-C” value in series [3] (asymmetric std dev errors) is given as -0.3706. Further, the “FTIR ß-sheet content/ %” value in series [4] is 41.84%; in series [4] (ATR-FT-IR), 42% and 41.84%.
Turning to QCKFKQFFNMWQ [CK10], in series [1], the “TEM: 1= fibrils, 0= aggregates (micelle)” value is given as 0.5. Besides, the “Zeta Pot. / mV” value in series [2] is 9.587 mV; in series [2] (mean, Std Zeta in next column), 9.587 mV; in series [2] (mean, Std in separate column), 9.587 mV. The “Zeta category” value in series [2] and in series [2] (category from zeta potential) was 1 (+1 = if > 4 mV) each time. Moreover, the “Zeta-pot. / mV” value in series [2] is reported as 9.587 mV. Besides, the “Log10 of Rel to EFC (Feb2021)” value in series [3] (setting [6]) and in series [3] (setting [15]) was -0.606 in each case. In addition, the “n-fold to virus (Feb2021)” value in series [3] (setting [9]) and in series [3] (setting [14]) was 6.098 in each case. The “Rel-to EFC (Feb-2021)” value in series [3] (setting [13]), in series [3] (setting [10]) and in series [3] (setting [16]) was 0.2478 in each case. Also, in series [3] (Fig S8 panels B, D, infectivity enhancement relative to EF-C), the “Rel-to EFC” value is 0.2478. Further, in series [3] (Fig S8 panels B, D, infectivity n-fold relative to virus alone), the n-fold to virus is listed as 6.098. Also, in series [3], the infectivity result is “medium”. The “Log10 Inf. rel. to EF-C” value in series [3] (asymmetric std dev errors) was -0.6059. Moreover, the “FTIR ß-sheet content/ %” value in series [4] was 41.78%; in series [4] (ATR-FT-IR), 42% and 41.78%.
